According to patent US20240284906A1, “HERBICIDAL COMPOSITIONS CONTAINING CINMETHYLINE AND ETHOFUMESATE” (BAYER AKTIENGESELLSCHAFT, priority 2021, published 2024):

Columns and labels:
Avena fatua = test: Pre-emergence weed control, pot trial; type: in vivo; conditions: pre-emergence (BBCH 00), 27 DAA, scale 0-100
Procedure: (§1) The following plant species were selected for the tests:
(§2) The seeds of the abovementioned biotypes were sown in 8 cm pots (LSI; pH 7.4; % C org 2.2). The temperature was kept at about 23°/15° C. day/night. After the herbicides had been applied (300 l water/ha), the pots were irrigated from beneath as required. Two trials were conducted. In a pre-emergence trial, the herbicides were applied directly after sowing at the BBCH 00 growth stage. In a post-emergence trial, the herbicides were deployed at the BBCH 11-12 growth stage.
(§3) The active herbicidal ingredient cinmethylin was used as commercial emulsifiable concentrate (EC) LUMIMAX. Ethofumesate was used in the form of the commercial suspension concentrate (SC) Nortron. A methylated seed oil (Mero) was added to the spray liquids in an amount of 1 l/ha in order to assure good retention characteristics.
(§4) The percentage of weed control (2 repetitions) was rated 27 days after the application of herbicide (DAA) on a scale of 0-100. A rating of 0 means no control, and 100 means complete control.
(§5) According to Colby, synergistic effects of active herbicidal ingredients are indicated when the measured efficacy is higher than that expected, which is calculated by its formula for 2-substance mixtures: EC=A+B−(A×B)/100

Veronica persica = test: Pre-emergence weed control, pot trial; type: in vivo; conditions: pre-emergence (BBCH 00), 27 DAA, scale 0-100
Procedure: as §1, §2, §3, §4, §5

Lolium rigidum = test: Post-emergence weed control, pot trial; type: in vivo; conditions: post-emergence (BBCH 11-12), 27 DAA, scale 0-100
Procedure: as §1, §2, §3, §4, §5

Alopecurus myosuroides = test: Post-emergence weed control, pot trial; type: in vivo; conditions: post-emergence (BBCH 11-12), 27 DAA, scale 0-100
Procedure: as §1, §2, §3, §4, §5

Abuthilon theophrasti = test: Post-emergence weed control, pot trial; type: in vivo; conditions: post-emergence (BBCH 11-12), 27 DAA, scale 0-100
Procedure: as §1, §2, §3, §4, §5

MATIN [1] = test: Post-emergence weed control, pot trial; type: in vivo, Matricaria inodora; conditions: post-emergence (BBCH 11-12), 27 DAA, scale 0-100
Procedure: as §1, §2, §3, §4, §5

MATIN [2] = test: Pre-emergence weed control, pot trial; type: in vivo, Matricaria inodora; conditions: pre-emergence (BBCH 00), 27 DAA, scale 0-100
Procedure: as §1, §2, §3, §4, §5

Row | SMILES | Efficacy (percentage of weed control) AVEFA (Avena fatua; 100 g ai/ha) [%] | Efficacy (percentage of weed control) VERPE (Veronica persica; 50 g ai/ha) [%] | Efficacy (percentage of weed control) LOLRI (Lolium rigidum; 100 g ai/ha) [%] | Efficacy (percentage of weed control) ALOMY (Alopecurus myosuroides; 100 g ai/ha) [%] | Efficacy (percentage of weed control) ABUTH (Abuthilon theophrasti; 100 g ai/ha) [%] | Efficacy (percentage of weed control) MATIN (MATIN [1]; 25 g ai/ha) [%] | Efficacy (percentage of weed control) MATIN (MATIN [2]; 50 g ai/ha) [%] | Efficacy (percentage of weed control) AVEFA (Avena fatua; 20 g ai/ha) [%] | Efficacy (percentage of weed control) VERPE (Veronica persica; 10 g ai/ha) [%] | Efficacy (percentage of weed control) LOLRI (Lolium rigidum; 20 g ai/ha) [%] | Efficacy (percentage of weed control) ALOMY (Alopecurus myosuroides; 20 g ai/ha) [%] | Efficacy (percentage of weed control) ABUTH (Abuthilon theophrasti; 20 g ai/ha) [%] | Efficacy (percentage of weed control) MATIN (MATIN [1]; 50 g ai/ha) [%] | Efficacy (percentage of weed control) MATIN (MATIN [2]; 10 g ai/ha) [%]
1 | Cc1ccccc1CO[C@@H]1C[C@]2(C(C)C)CC[C@@]1(C)O2 (racemic) [Cinmethylin, (+/−)-2-exo-(2-methylbenzyloxy)-1-methyl-4-isopropyl-7-oxabicyclo[2.2.1]heptane] | 70 | 20 | 63 | 78 | 35 | 20 | 70 | – | – | – | – | – | – | –
2 | CCOC1Oc2ccc(OS(C)(=O)=O)cc2C1(C)C (centres unmarked) [Ethofumesate] | – | – | – | – | – | – | – | 0 | 0 | 0 | 0 | 0 | 10 | 0
